Data on five compounds can be found in patent US20080255224A1, “PHARM[…] OF PSORIASIS” (priority 2007, published 2008).

Data set [1] relates to epidermal keratinocyte differentiation. The note with it: cited from earlier work.
In data set [2] the test system is keratinocyte proliferation. Particulars: in vitro; cited from earlier work.
The conditions of data set [3]: prior use for nausea and vomiting of chemotherapy; cited from earlier work.
For data set [4], the system named is psoriasis. The data set is described as follows: Oral nabilone in a patient suffering from psoriasis, inpatient, unblinded. It counts as in vivo, human. As for the experimental part: A patient suffering from psoriasis was treated with oral nabilone on an inpatient, unblinded basis. The patient suffered from psoriasis which had not responded well to prior drug treatments. To assess whether nabilone was beneficial in alleviating symptoms, nabilone at a dose of 1 mg was added to all other anti-inflammatory and anti-psoriatic medications. The results were dramatic. The regimen administered was a 0.5 mg dosage twice daily for four days, and then 1 mg twice daily for five days and eventually 1 mg daily was administered to the patient. Itch which had been intolerable and incessant abolished with the 1st dose. By the 10th day of therapy the skin redness had disappeared.

Regarding `CCCCC/C=C\C/C=C\C/C=C\C/C=C\CCCC(=O)NCCO` [Anadamide], in data set [1], the “Effect on epidermal keratinocyte differentiation” value is “inhibits”.

Turning to `COc1ccc2c(c1)c(CC(=O)N1CCOCC1)c(C)n2C(=O)c1ccc(Cl)cc1` [BML 190], in data set [2], the “Inhibition of keratinocyte proliferation” value is “only partial inhibition”.

For the compound `CCCCCCC(C)(C)c1cc(O)c2c(c1)OC(C)(C)[C@@H]1CC=C(CO)C[C@@H]21` [HU210], the “Inhibition of keratinocyte proliferation” value in data set [2] is given as “concentration-dependent response”.

For `CCCn1c(C)c(C(=O)c2cccc3ccccc23)c2ccccc21` [JWH015], the “Inhibition of keratinocyte proliferation” value in data set [2] was “only partial inhibition”.

Consider `CCCCCCC(C)(C)c1cc(O)c2c(c1)OC(C)(C)C1CCC(=O)CC21` (centres unmarked) [nabilone], for which, in data set [3], the Immunosuppressive potential result is recorded as “does not show immunosuppressive potential” and the Tolerability entry is “well tolerated”. In addition, in data set [4] (oral nabilone added to all other anti-inflammatory and anti-psoriatic medications, with the 1st dose (0.5 mg)), the Itch result is recorded as “abolished”. Besides, in data set [4] (oral, by the 10th day of therapy (0.5 mg twice daily for four days, then 1 mg twice daily for five days, then 1 mg daily)), the Skin redness entry was “disappeared”.
